Test results: ChEMBL document CHEMBL1201862, “PubChem BioAssay data set” (2004)
Structures can show the parent of a compound that is named as a salt.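 A five-concentration, 48-hour dose response in 96-well plates underlies each endpoint, interpolated linearly between surrounding concentrations. GI50: concentration for 50% inhibition of growth.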 The source made the active and inactive calls. No stated cut-off is given here; in the data, active = GI50 up to about 1.1 µM and inactive = higher.

How the values were obtained:
Experiment in all cases: NCI-60 cell line screen, 48 h
786-0 = tested on: 786-0
ACHN = tested on: ACHN
BT-549 = tested on: BT-549
DU-145 = tested on: DU-145
HCC 2998 = tested on: HCC 2998
HCT-15 = tested on: HCT-15
HL-60 = tested on: HL-60
HOP-62 = tested on: HOP-62
Hs-578T = tested on: Hs-578T
MCF7 = tested on: MCF7
MDA-MB-435 = tested on: MDA-MB-435
MOLT-4 = tested on: MOLT-4
NCI-H226 = tested on: NCI-H226
OVCAR-3 = tested on: OVCAR-3
PC-3 = tested on: PC-3
RPMI-8226 = tested on: RPMI-8226
RXF 393 = tested on: RXF 393
SK-MEL-2 = tested on: SK-MEL-2
SK-MEL-5 = tested on: SK-MEL-5
SNB-19 = tested on: SNB-19

Row | Compound | GI50 (786-0) | GI50 (ACHN) | GI50 (BT-549) | GI50 (DU-145) | GI50 (HCC 2998) | GI50 (HCT-15) [µM] | GI50 (HL-60) | GI50 (HOP-62) | GI50 (Hs-578T) | GI50 (MCF7) | GI50 (MDA-MB-435) | GI50 (MOLT-4) | GI50 (NCI-H226) | GI50 (OVCAR-3) | GI50 (PC-3) | GI50 (RPMI-8226) | GI50 (RXF 393) | GI50 (SK-MEL-2) | GI50 (SK-MEL-5) | GI50 (SNB-19)
1 | N#CCC(=O)N/N=C\C(O)C(O)C(O)C(O)CO (stereo not given) | > 100 µM (inactive) | > 100 µM (inactive) | > 100 µM (inactive) | > 100 µM (inactive) | > 100 µM (inactive) | > 100 | > 100 µM (inactive) | > 100 µM (inactive) | > 100 µM (inactive) | > 100 µM (inactive) | > 100 µM (inactive) | > 100 µM (inactive) | > 100 µM (inactive) | > 100 µM (inactive) | > 100 µM (inactive) | > 100 µM (inactive) | > 100 µM (inactive) | > 100 µM (inactive) | > 100 µM (inactive) | > 100 µM (inactive)
2 | COC1(OC)c2occc2C(=N)c2ccc(=O)oc21 | > 100 µM (inactive) | 92.3 µM (inactive) | > 100 µM (inactive) | > 100 µM (inactive) | > 100 µM (inactive) | > 100 | 45.8 µM (inactive) | > 100 µM (inactive) | > 100 µM (inactive) | 81.8 µM (inactive) | > 100 µM (inactive) | > 100 µM (inactive) | > 100 µM (inactive) | 77.8 µM (inactive) | > 100 µM (inactive) | > 100 µM (inactive) | > 100 µM (inactive) | > 100 µM (inactive) | 22.4 µM (inactive) | > 100 µM (inactive)
3 | CC[C@]12CN3CCc4c([nH]c5ccccc45)[C@@](C(=O)OC)(c4cc5c(cc4OC)N(C)[C@H]4[C@@](O)(C(=O)OC)[C@H](OC(C)=O)[C@]6(CC)C=CCN7CC[C@]54[C@@H]76)CC(C3)[C@H]1O2 (stereo not given in full) [VINLEUROSINE SULFATE] | < 0.01 µM (active) | 1.33 µM (inactive) | 10.2 µM (inactive) | < 0.01 µM (active) | < 0.01 µM (active) | 0.449 | < 0.01 µM (active) | 0.1 µM (active) | 0.108 µM (active) | < 0.014 µM (active) | < 0.01 µM (active) | < 0.0156 µM (active) | 0.221 µM (active) | 0.0104 µM (active) | 0.134 µM (active) | 0.0581 µM (active) | 0.158 µM (active) | 0.0968 µM (active) | < 0.01 µM (active) | 0.0553 µM (active)
4 | N#CC1(C#N)NC(c2cccs2)C(C#N)(C#N)NC1c1cccs1 (stereo not given) | 39.9 µM (inactive) | 25.4 µM (inactive) | 21.2 µM (inactive) | 59.7 µM (inactive) | 57.1 µM (inactive) | 30.7 | 17.1 µM (inactive) | > 100 µM (inactive) | 43.2 µM (inactive) | 12.2 µM (inactive) | 46.1 µM (inactive) | 23.3 µM (inactive) | 53.1 µM (inactive) | 25.2 µM (inactive) | 27.4 µM (inactive) | 27.4 µM (inactive) | 31.7 µM (inactive) | 14.2 µM (inactive) | 26.7 µM (inactive) | 55.2 µM (inactive)
5 | COc1ccc2c(c1OC)OC[C@@H](C1=CC(=O)C=C(O)C1=O)C2 | 5.38 µM (inactive) | 4.8 µM (inactive) | 12.8 µM (inactive) | 15.7 µM (inactive) | 17.2 µM (inactive) | 14.7 | 0.641 µM (active) | 27 µM (inactive) | 20.6 µM (inactive) | 9.91 µM (inactive) | 8.61 µM (inactive) | 0.838 µM (active) | 19.6 µM (inactive) | 7.62 µM (inactive) | 13.1 µM (inactive) | 1.91 µM (inactive) | 6.4 µM (inactive) | 15.3 µM (inactive) | 12.5 µM (inactive) | 16 µM (inactive)
6 | Cc1cc(=O)oc2cc(OC(=O)Nc3ccc(Cl)c(Cl)c3)ccc12 | 38.8 µM (inactive) | 20.9 µM (inactive) | 17.8 µM (inactive) | 25.3 µM (inactive) | 19.4 µM (inactive) | 20.9 | 18.5 µM (inactive) | 24.7 µM (inactive) | 20.7 µM (inactive) | 25.6 µM (inactive) | 20.9 µM (inactive) | 17.1 µM (inactive) | 20.3 µM (inactive) | 13 µM (inactive) | 22.5 µM (inactive) | 9.29 µM (inactive) | 14.3 µM (inactive) | 21.6 µM (inactive) | 16.1 µM (inactive) | 25.9 µM (inactive)
7 | Cc1ccc2c(c1)C(C1Cc3cccc(C)c3C1=O)OC2=O (stereo not given) | > 100 µM (inactive) | > 100 µM (inactive) | > 100 µM (inactive) | > 100 µM (inactive) | > 100 µM (inactive) | > 100 | 35.8 µM (inactive) | > 100 µM (inactive) | > 100 µM (inactive) | 81.1 µM (inactive) | 47.5 µM (inactive) | 96.4 µM (inactive) | 72.9 µM (inactive) | > 100 µM (inactive) | > 100 µM (inactive) | 30.3 µM (inactive) | 22.4 µM (inactive) | > 100 µM (inactive) | 56.4 µM (inactive) | > 100 µM (inactive)
